One data set relates to RPTEC/TERT1 cells. In kind it is cell-based, human. The protocol: For high content imaging, NRK-52E and RPTEC/TERT1 cells were cultivated in µ-clear half well area microtiter plates (Greiner) according to the protocol described for the cytotoxicity assay with slight modification. Briefly, NRK-52E cells were seeded at 5,000 cells in 100 µL growth medium per well and were incubated under standard growth conditions for 48 h prior to treatment. RPTEC/TERT1 cells were seeded at 15,000 cells in 100 µL growth medium per well and incubated under standard growth conditions for 7–8 days, until cells reached confluence and started to differentiate. This was indicated by the formation of three-dimensional structures referred to as domes which were identified by regular microscopic inspection of the plates. Only differentiated cell cultures with detectable domes were assayed. Cells of both cell lines were treated with serially diluted Polymyxin B sulfate (concentration range 7.8 to 2,000 µM) for 1, 2, 4, 6, or up to 24 h. The assay was carried out on three biological replicates defined as three different non-consecutive passages of the cell culture. Each biological replicate at each treatment concentration was assayed in triplicate wells per plate.
Following treatment, cells were stained with two different combinations of fluorescent dyes: NRK-52E cells with 50 pg/μL LysoView™ 633 (Biotium) and 1 µM SYTO 16 (Thermo Scientific), respectively, for lysosomes and nuclei; RPTEC/TERT1 cells with 10 nM LysoTracker™ Red (Thermo Scientific) and 10 ng/μL Hoechst 33342 (Merck-Sigma Aldrich), respectively, for lysosomes and nuclei. For each cell line a staining solution was obtained by mixing the lysosomes and nuclei dyes in cell culture medium at the concentrations indicated above. The cells were stained by replenishing the medium for 100 µL of staining solution per well followed by incubation at 37°C and 5% CO2 for 30 min before imaging.
Images were acquired with a fully automated fluorescence confocal Opera™ QEHS system (PerkinElmer, United Kingdom) using a ×40 air UPlanApo objective (Olympus) with 0.85 numerical aperture. NRK-52E cells stained with the dyes SYTO 16 and LysoView™633 were imaged with the laser lines 488 and 635 nm, using a 488/561/635 nm primary dichroic mirror, a 510 nm long pass (LP) detection dichroic mirror, a 540/75 nm band pass (BP) emission filter for SYTO 16 and a 690/50 nm BP emission filter for LysoView™ 633. RPTEC/TERT1 cells stained with the dyes Hoechst 33342 and LysoTracker™Red were imaged with the laser lines 405 and 561 nm, using a 405/561/635 nm primary dichroic mirror, a 580 nm LP detection dichroic mirror, a 450/50 nm BP emission filter for Hoechst 33342 and a 600/40 nm BP emission filter for LysoTracker™Red. To prevent cross talk of the fluorescent signals, each dye was imaged consecutively using the combination of lasers and filters described above. The settings for laser power, exposure time and focal height were kept constant for each cell line across all the experiments. For NRK-52E cells images were acquired at 25 randomly distributed positions in a well at a single focal plane whereas for RPTEC/TERT1 cells due to the development of dome structures images were acquired at 9 random positions at three focal planes each 1 μm apart.
The images were analyzed by custom-made image analysis scripts either with the imaging analysis software Acapella (version 2.8 PerkinElmer) or Columbus (version 2.4.0 PerkinElmer). The scripts included modules for the identification and counting of the cell nuclei to extrapolate the number of cells per well, for definition of a cytoplasm surrounding the nucleus, for identification and counting of the lysosome vesicles within the cytoplasm. Additional cellular parameters included the nuclei size, intensity, the cell size (cell area), the lysosome size (lysosome area), intensity and the number of lysosomes normalized by the cell area to compensate for difference in size of the cells.

In data set [1] the test system is RPTEC/TERT1 and NRK-52E cells. As to the kind of experiment: In vitro key event assays (LAMP-1/2, cathepsin D, cell viability) compared across both cell models. The class given is cell-based, human and rat. The note with it: for Effect on cell viability / cytotoxicity (KE3): CellTiter-Glo. The protocol: Cells were plated into 96-well tissue culture plates (10,000 cells per well) and were allowed to grow for 48 h (NRK-52E) respectively 10 d (RPTEC/TERT1) prior to 24 h treatment with model stressors. Stock solution for each compound (2000 µM) was prepared in growth medium and serial dilutions (1:1) were made before each experiment. At the end of the 24 h treatment, cell viability was measured using the CellTiter-Glo® assay (Promega). CellTiter-Glo® reagents and buffer were mixed under light-protected conditions and 100 µL CellTiter-Glo® solution was added directly to each well followed by 2 min incubation on an orbital shaker and 10 min incubation at room temperature in the dark to stabilize the luminescence signal. The suspension was mixed via pipetting and 50 µL were transferred into white 96-well plates (PerkinElmer Inc.). The luminescence signal was measured on a multiplate reader (Mithras LB 940; Berthold). Each assay was performed in three independent experiments carried out in triplicates.
For immunocytochemistry experiments, cells were seeded into 8-well chamber slides (Ibidi) at a density of 140 cells per µL in 300 µL growth medium and were allowed to grow for 48 h (NRK-52E) or 10 d (RPTEC/TERT1) respectively. For treatment, stock solutions (1,000 µM) of compounds dissolved in growth medium were freshly prepared and serial dilutions were made before exposure of cells for 24 h. After treatment, cells were washed twice with 150 µL PBS and fixed with 150 µL 4% paraformaldehyde in 1 x PBS for 10 min at room temperature. After fixation, cells were washed 10 min with 150 µL PBS on an orbital shaker followed by permeabilization with 150 µL 0.2% Triton X-100 in 1 x PBS for 5 min at room temperature on an orbital shaker. The permeabilized cells were washed twice with 1 x PBS (150 µL) for 10 min at room temperature on an orbital shaker and then incubated with 150 µL 5% BSA dissolved in 1 x PBS for 1 h at room temperature to block unspecific binding sites. After blocking, 100 µL primary antibody diluted 1:100 in 1% BSA in 1 x PBS were directly pipetted onto the cells and incubated overnight at 4°C. The following antibodies were employed for NRK-52E cells: Anti-LAMP-1 monoclonal IgG1 kappa mouse antibody (Santa Cruz; sc-20011), anti-Cathepsin D mouse monoclonal IgG2 kappa antibody (Santa Cruz; sc-377124); for RPTEC/TERT1 cells: Anti-LAMP-2 monoclonal mouse antibody (Santa Cruz; sc-18822), anti-Cathepsin D mouse monoclonal IgG2b kappa (Novus Biologicals; NBP1-04278); for both cell lines anti-megalin mouse monoclonal IgG1 antibody (Santa Cruz, sc-515772).
After incubation with primary antibody, cells were washed three times for 15 min with 0.2% Tween in 1 x PBS (150 µL) on an orbital shaker. Cells were incubated for 1 h at room temperature with 100 µL CFL 488-conjugated mouse IgG kappa binding protein (1:50) (m-IgGκ BP-CFL 488; Santa Cruz, sc-516176). After incubation the cells were washed three times for 15 min with 0.2% Tween in 1 x PBS on an orbital shaker and once with 150 µL sterile water. Phalloidin-tetramethylrhodamine B isothiocyanate (TRITC) was used to stain the cytoskeleton and was diluted in 100% methanol to a stock concentration of 0.1 mg/ml and further diluted in 1 x PBS to a working concentration of 0.095 µM. After cells were washed once with 1 x PBS for 10 min at room temperature 150 µL phalloidin-TRITC working solution was added and the cells were incubated on an orbital shaker at room temperature for 60–90 min. After incubation, phalloidin-TRITC solution was aspirated, and the cells were washed once with 1 x PBS. Chamber slides were allowed to dry for 15 min at room temperature. To preserve fluorescence 50–100 µL DAPI mounting medium (Vectashield®; Vectorlab, Biozol) was added to the cells and chamber slides were stored at 4°C in the dark until image acquisition. […]
On the technique in general: ATP-based viability assays read luminescence as a measure of living cells.

The mark [2] stands for this setting: RPTEC/TERT1, 24 h, 7.8 to 2000 µM (smaller range for CdCl2 and 4-aminophenol), triplicate experiments, Figure S1.
[3] abbreviates: RPTEC/TERT1 and NRK-52E, 24 h treatment.

Counter-ions that a name gives are not always drawn. Like-named read-outs stand apart in the source and are kept apart here.

As for `CNC(C)C1CCC(N)C(OC2C(N)CC(N)C(OC3OCC(C)(O)C(NC)C3O)C2O)O1` (centres unmarked) [gentamicin], the “Effect on lysosomal endpoints in high content screening” value (from here on “Effect on lysosomal endpoints”) in the data set on RPTEC/TERT1 cells (setting [2]) was “most prominent effects on lysosomal endpoints”.
On to `[Cl][Cd][Cl]` [CdCl2, cadmium chloride], for which, in the data set on RPTEC/TERT1 cells (setting [2]), the “Effect on lysosomal endpoints” value was “most prominent effects on lysosomal endpoints”. Besides, the “Cytotoxicity compared between RPTEC/TERT1 and NRK-52E cells” value in data set [1] (24 h treatment, cell viability) is reported as “more toxic in NRK-52E cells”. Further, the “Effect on LAMP-1/2 expression (KE1)” value in data set [1] (RPTEC/TERT1 and NRK-52E, 24 h, immunofluorescence image analysis) is “only minor effects on LAMP1/2 expression”. Further, in data set [1] (setting [3]), the “Effect on cell viability / cytotoxicity (KE3)” value is listed as “significant cytotoxicity”.
As for `Nc1ccc(O)cc1` [4-aminophenol], in the data set on RPTEC/TERT1 cells, the “Effect on lysosomal endpoints” value is reported as “minor changes”.
As to `C[C@H](Cn1cnc2c(N)ncnc21)OCP(=O)(O)O` [tenofovir], the “Effect on lysosomal endpoints” value in the data set with RPTEC/TERT1 cells (setting [2]) is recorded as “minor changes”.
Regarding Polymyxin B nonapeptide, the “Effect on lysosomal endpoints” value in the data set with RPTEC/TERT1 cells (setting [2]) is reported as “most prominent effects on lysosomal endpoints”. For the same molecule, the “Rank order of effects of the 3 polymyxin derivatives across all KEs” value in data set [1] (RPTEC/TERT1 and NRK-52E, 24 h) is “least toxic”. In data set [1] (setting [3]), the “Effect on cell viability / cytotoxicity (KE3)” value was “low”.
As to `N[C@@H](CSC(Cl)=C(Cl)Cl)C(=O)O` [TCVC, S-(1,2,2-trichlorovinyl)-L-cysteine], the “Effect on lysosomal endpoints” value in the data set on RPTEC/TERT1 cells (setting [2]) is “minor changes”.
For `CC(C)OC(=O)OCOP(=O)(CO[C@H](C)Cn1cnc2c(N)ncnc21)OCOC(=O)OC(C)C` [tenofovir disoproxil fumarate], in the data set with RPTEC/TERT1 cells (setting [2]), the “Effect on lysosomal endpoints” value is reported as “minor changes”.
Turning to `Nc1ccn(C[C@@H](CO)OCP(=O)(O)O)c(=O)n1` [cidofovir], the “Effect on lysosomal endpoints” value in the data set with RPTEC/TERT1 cells (setting [2]) is recorded as “minor changes”.
For `CN[C@H](CC(C)C)C(=O)N[C@H]1C(=O)N[C@@H](CC(N)=O)C(=O)N[C@H]2C(=O)N[C@H]3C(=O)N[C@H](C(=O)N[C@H](C(=O)O)c4cc(O)cc(O)c4-c4cc3ccc4O)[C@H](O)c3ccc(c(Cl)c3)Oc3cc2cc(c3O[C@@H]2O[C@H](CO)[C@@H](O)[C@H](O)[C@H]2O[C@H]2C[C@](C)(N)[C@H](O)[C@H](C)O2)Oc2ccc(cc2Cl)[C@H]1O` [vancomycin], the “Effect on lysosomal endpoints” value in the data set with RPTEC/TERT1 cells was “most prominent effects on lysosomal endpoints”.

The values are drawn from PMC9061999, “Application of the Adverse Outcome Pathway Concept to In Vitro Nephrotoxicity Assessment: Kidney Injury due to Receptor-Mediated Endocytosis and Lysosomal Overload as a Case Study” (Frontiers in Toxicology, 2022).
